Data: PMC4126480, “Evaluation of drug interaction potential of Labisia pumila (Kacip Fatimah) and its constituents” (Frontiers in Pharmacology, 2014)
Where “and” joins values, the source holds several entries; their conditions need not be identical. Equal entries are not always repeated.

Key:
[1] = Estimation of concentration per dose, GIT and plasma concentrations (560 mg KF extract dose); design: species or system human; conditions: for Estimated concentration per dose: 560 mg KF extract, single dose, from % yield; for Estimated GIT concentration / Estimated Plasma concentration: 560 mg dose; for Estimated GIT concentration: human GIT volume 250 mL; for Estimated Plasma concentration: Table 2, plasma volume 3 L, 100% bioavailable assumed
Procedure: (§1) All assumptions to predict the HDI potential of KF methanolic extract and its constituents were according to previously published report ([Awortwe et al., 2014]). The % yield was calculated from the amounts extracted from the KF roots ([Ali and Khan, 2011]). The human GIT volume is 250 mL and plasma volume is about 3 L. The commonly used maximum dose of KF extract capsules is 560 mg per day ([Abdul Kadir et al., 2012]) and accordingly we estimated the concentration per dose, GIT, and plasma concentrations of extract and its constituents. We then compared the in vitro IC50 values obtained from recombinant CYPs with estimated GIT and plasma concentrations. If the IC50 values were lower than the GIT or plasma concentration, then the test compound or extract is likely to cause HDI in vivo.

[2] = biological target: T1, CYP3A4 (Homo sapiens, UniProt P08684); assay: Reversible inhibition (co-incubation assay) of recombinant CYP3A4, fluorescent substrate; type: in vitro ADME
T1 construct: purchased BD Gentest (Woburn, MA, USA); host or cells: baculovirus expression system
T1 sequence (P08684 whole entry): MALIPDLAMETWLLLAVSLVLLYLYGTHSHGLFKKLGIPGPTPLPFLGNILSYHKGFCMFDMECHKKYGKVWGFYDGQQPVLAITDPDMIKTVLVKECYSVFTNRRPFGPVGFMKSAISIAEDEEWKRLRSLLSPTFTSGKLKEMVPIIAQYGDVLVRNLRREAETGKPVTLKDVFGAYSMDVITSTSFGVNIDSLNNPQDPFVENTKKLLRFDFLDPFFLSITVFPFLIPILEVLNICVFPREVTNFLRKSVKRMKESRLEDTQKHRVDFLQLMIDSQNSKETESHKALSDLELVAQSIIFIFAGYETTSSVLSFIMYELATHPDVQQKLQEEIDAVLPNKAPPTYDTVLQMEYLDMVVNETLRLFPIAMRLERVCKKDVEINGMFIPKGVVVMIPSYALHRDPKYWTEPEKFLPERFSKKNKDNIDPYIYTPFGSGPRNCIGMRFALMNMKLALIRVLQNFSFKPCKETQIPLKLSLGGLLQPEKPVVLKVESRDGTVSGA
Procedure: The assay for reversible inhibition was conducted in a total volume of 200 μL in 96-well microplates. […] Test samples or positive controls were serially diluted in a solution (100 μL) of cofactors mix, control protein (0.05 mg of protein/mL), and G-6-PDH to achieve six concentrations (100-0.4 μM or μg/mL). Initial readings were taken to record any inherent fluorescence and the plates were incubated at 37°C for 10 min. Reaction was initiated by the addition of enzyme substrate mixture (100 μL) followed by incubation for 15, 30, or 45 min. The reaction was terminated by the addition of 75 μL of ice cold acetonitrile/0.5 M Tris base (80:20). Fluorescence was measured on Spectramax M5 plate reader (Molecular Devices, Sunnyvale, CA, USA) at specified excitation and emission wavelengths for each substrate. IC50 values (co-incubation assay) were obtained from concentration-response curves generated by plotting concentration versus % inhibition.

[3] = biological target: T2, CYP2D6 (Homo sapiens, UniProt P10635); assay: Reversible inhibition of recombinant CYP2D6; type: in vitro ADME
T2 construct: purchased BD Gentest (Woburn, MA, USA); host or cells: baculovirus expression system
T2 sequence (P10635 whole entry): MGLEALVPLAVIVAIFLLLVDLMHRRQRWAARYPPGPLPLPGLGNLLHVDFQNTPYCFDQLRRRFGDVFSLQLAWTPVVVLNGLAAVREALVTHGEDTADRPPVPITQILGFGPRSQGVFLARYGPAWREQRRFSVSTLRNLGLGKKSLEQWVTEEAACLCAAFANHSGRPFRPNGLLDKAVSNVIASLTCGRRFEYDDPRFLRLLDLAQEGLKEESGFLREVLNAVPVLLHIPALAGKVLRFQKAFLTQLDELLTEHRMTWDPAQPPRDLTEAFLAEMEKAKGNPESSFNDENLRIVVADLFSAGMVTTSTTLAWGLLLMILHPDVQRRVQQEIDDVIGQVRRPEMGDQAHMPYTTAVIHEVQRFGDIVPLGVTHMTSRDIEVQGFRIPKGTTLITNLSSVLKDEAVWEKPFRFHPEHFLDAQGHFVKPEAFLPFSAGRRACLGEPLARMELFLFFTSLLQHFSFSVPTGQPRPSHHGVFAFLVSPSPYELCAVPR
Procedure: (§2) The assay for reversible inhibition was conducted in a total volume of 200 μL in 96-well microplates. The assay conditions, enzyme and substrate concentrations were similar as reported earlier ([Crespi et al., 1997]; [Manda et al., 2013]). Test samples or positive controls were serially diluted in a solution (100 μL) of cofactors mix, control protein (0.05 mg of protein/mL), and G-6-PDH to achieve six concentrations (100-0.4 μM or μg/mL). Initial readings were taken to record any inherent fluorescence and the plates were incubated at 37°C for 10 min. Reaction was initiated by the addition of enzyme substrate mixture (100 μL) followed by incubation for 15, 30, or 45 min. The reaction was terminated by the addition of 75 μL of ice cold acetonitrile/0.5 M Tris base (80:20). Fluorescence was measured on Spectramax M5 plate reader (Molecular Devices, Sunnyvale, CA, USA) at specified excitation and emission wavelengths for each substrate. IC50 values (co-incubation assay) were obtained from concentration-response curves generated by plotting concentration versus % inhibition.

[4] = biological target: T3, CYP2C19 (Homo sapiens, UniProt P33261); assay: Time dependent inhibition (pre-incubation assay) of recombinant CYP2C19; type: in vitro ADME; conditions: recombinant CYP2C19, 30 min pre-incubation
T3 construct: purchased BD Gentest (Woburn, MA, USA); host or cells: baculovirus expression system
T3 sequence (P33261 whole entry): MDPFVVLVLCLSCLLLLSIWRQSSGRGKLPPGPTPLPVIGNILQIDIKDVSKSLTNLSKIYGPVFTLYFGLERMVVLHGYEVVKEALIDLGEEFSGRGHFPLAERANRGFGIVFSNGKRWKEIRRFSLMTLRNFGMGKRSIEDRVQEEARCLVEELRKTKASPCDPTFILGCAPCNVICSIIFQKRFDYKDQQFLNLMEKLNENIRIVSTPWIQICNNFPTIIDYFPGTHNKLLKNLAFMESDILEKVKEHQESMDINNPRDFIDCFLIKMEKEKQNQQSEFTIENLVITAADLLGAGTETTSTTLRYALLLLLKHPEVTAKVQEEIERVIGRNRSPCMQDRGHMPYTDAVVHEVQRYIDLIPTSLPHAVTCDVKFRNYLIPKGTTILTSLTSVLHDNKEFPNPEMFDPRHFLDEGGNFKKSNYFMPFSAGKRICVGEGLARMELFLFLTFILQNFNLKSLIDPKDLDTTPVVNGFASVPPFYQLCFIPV
Procedure: (§3) Time dependent inhibition (TDI) of CYPs was measured as described earlier by [Sekiguchi et al. (2009)]. The reaction mixture (180–190 μL), consisting of test sample, recombinant enzyme, control protein (0.05 mg of protein/mL), cofactor mix, G-6-PDH, and 50 mM potassium phosphate buffer (pH 7.4) was pre-incubated for 30 min followed by addition of respective fluorescent substrates (10–20 μL) and further incubation for 15 (CYP1A2), 30 (CYP3A4), or 45 (CYP 2C9 and 2C19) min. The reaction was terminated by addition of 75 μL of ice cold acetonitrile/0.5 M Tris base (80:20) and fluorescence was measured as above. IC50 values (pre-incubation assay) were obtained as above. The shift in the concentration-response curve was calculated as the ratio of IC50 (co-incubation)/IC50 (pre-incubation).

[5] = biological target: T4, CYP1A2 (Homo sapiens, UniProt P05177); assay: Prediction of in vivo HDI from in vitro results, CYP1A2; conditions: for Likelihood of causing HDI: CYP1A2, IC50 compared with estimated GIT and plasma concentrations; for Plasma concentration: Table 3, CYP1A2 section
T4 construct: purchased BD Gentest (Woburn, MA, USA); host or cells: baculovirus expression system
T4 sequence (P05177 1-516): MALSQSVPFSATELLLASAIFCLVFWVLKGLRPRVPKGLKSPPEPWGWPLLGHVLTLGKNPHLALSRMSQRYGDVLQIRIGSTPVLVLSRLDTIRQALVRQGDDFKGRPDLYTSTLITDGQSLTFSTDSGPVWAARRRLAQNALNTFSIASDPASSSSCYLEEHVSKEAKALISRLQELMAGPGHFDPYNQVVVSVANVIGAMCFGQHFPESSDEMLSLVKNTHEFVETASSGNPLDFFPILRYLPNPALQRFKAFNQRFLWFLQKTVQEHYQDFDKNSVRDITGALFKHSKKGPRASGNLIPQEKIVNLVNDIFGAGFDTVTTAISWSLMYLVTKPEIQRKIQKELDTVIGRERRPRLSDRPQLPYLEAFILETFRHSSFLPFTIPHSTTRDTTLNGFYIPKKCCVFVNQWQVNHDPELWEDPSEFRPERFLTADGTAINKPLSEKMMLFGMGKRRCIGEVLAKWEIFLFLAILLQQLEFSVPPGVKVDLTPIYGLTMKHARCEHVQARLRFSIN
Procedure: as §1

[6] = biological target: T5, CYP2C9 (Homo sapiens, UniProt P11712); assay: Time dependent inhibition (pre-incubation assay) of recombinant CYP2C9; type: in vitro ADME; conditions: recombinant CYP2C9, 30 min pre-incubation
T5 construct: purchased BD Gentest (Woburn, MA, USA); host or cells: baculovirus expression system
T5 sequence (P11712 whole entry): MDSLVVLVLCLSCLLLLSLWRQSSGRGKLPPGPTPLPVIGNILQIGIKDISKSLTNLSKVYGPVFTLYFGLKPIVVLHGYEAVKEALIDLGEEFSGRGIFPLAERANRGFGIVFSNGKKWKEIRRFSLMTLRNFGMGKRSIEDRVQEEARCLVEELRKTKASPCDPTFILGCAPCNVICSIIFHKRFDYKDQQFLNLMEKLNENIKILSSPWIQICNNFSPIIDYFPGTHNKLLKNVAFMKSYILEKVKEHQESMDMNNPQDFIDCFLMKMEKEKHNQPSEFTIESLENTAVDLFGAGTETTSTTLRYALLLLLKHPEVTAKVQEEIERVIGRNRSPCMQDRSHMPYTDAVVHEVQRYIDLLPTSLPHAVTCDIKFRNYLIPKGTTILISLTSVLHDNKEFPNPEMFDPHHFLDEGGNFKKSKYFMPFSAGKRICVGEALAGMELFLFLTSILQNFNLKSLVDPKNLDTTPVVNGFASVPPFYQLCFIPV
Procedure: as §3

[7] = biological target: T5, CYP2C9; assay: Prediction of in vivo HDI from in vitro results, CYP2C9; design: key to Likelihood of causing HDI: If the IC50 values were lower than the GIT or plasma concentration, then the test compound or extract is likely to cause HDI in vivo; conditions: for Likelihood of causing HDI: CYP2C9, IC50 compared with estimated GIT and plasma concentrations; for Plasma concentration: Table 3, CYP2C9 section
Procedure: as §1

[8] = biological target: T1, CYP3A4; assay: Prediction of in vivo HDI from in vitro results, CYP3A4; design: key to Likelihood of causing HDI: If the IC50 values were lower than the GIT or plasma concentration, then the test compound or extract is likely to cause HDI in vivo; conditions: for Likelihood of causing HDI: CYP3A4, IC50 compared with estimated GIT and plasma concentrations; for Plasma concentration: Table 3, CYP3A4 section
Procedure: as §1

[9] = biological target: T5, CYP2C9; assay: Reversible inhibition (co-incubation assay) of recombinant CYP2C9; type: in vitro ADME
Procedure: as §2

Estimated concentration per dose [1] [mg/mL]	Estimated GIT concentration [1] [µg/mL]	Estimated Plasma concentration [1] [µg/mL]	IC50 [2]	IC50 [3] [µM]	IC50 [4] [µM]	Likelihood of causing HDI [5]	Plasma concentration [5] [ng/mL]	IC50 [6] [µM]	Likelihood of causing HDI [7]	Plasma concentration [7] [ng/mL]	Likelihood of causing HDI [8]	Plasma concentration [8] [ng/mL]	IC50 [9]	Structure (SMILES)
6.72	27.1	2.2	4.1 µM and 4.4 µM	87.9	3.2 ± 0.2	Remote	774	8 ± 1.4	likely	13220	likely	13220	11.9 µM	CCCC/C=C\CCCCCCCCCc1cc(O)cc(O)c1 [5-[10(Z)-pentadecenyl]resorcinol]
6.77	27.1	2.25	69 µM and 67.9 µM	33.2	11 ± 0.7	unlikely	722	22 ± 1.8	likely	790	unlikely	790	16 µM and 15.1 µM	CCCC/C=C\CCCCCCCCCC1=C(c2c(O)cc(O)cc2CCCCCCCCC/C=C\CCCC)C(=O)C=C(OC)C1=O [Demethylbelamcandaquinone B]
0.05	0.20	0.016	25 µM and 24.7 µM		16 ± 1.1	unlikely	16	23 ± 1.5	unlikely	16	unlikely	16	17 µM	CCCC/C=C\CCCCCCCCCc1cc(O)cc2oc3cc(OC)c(O)c(CCCCCCCCC/C=C\CCCC)c3c12 [Fatimahol]

Structure (SMILES)	Estimated concentration per dose [1] [mg/mL]	Estimated GIT concentration [1] [µg/mL]	Estimated Plasma concentration [1] [µg/mL]	IC50 [2]	IC50 [3] [µM]	IC50 [4] [µM]	Likelihood of causing HDI [5]	Plasma concentration [5] [ng/mL]	IC50 [6] [µM]	Likelihood of causing HDI [7]	Plasma concentration [7] [ng/mL]	Likelihood of causing HDI [8]	Plasma concentration [8] [ng/mL]	IC50 [9]
CCCC/C=C\CCCCCCCCCc1cc(O)cc(OC)c1 [Belamcandol B]	3.41	13.64	1.13	18 µM and 45.1 µM	105	3.2 ± 0.3	unlikely	310	23 ± 2.1	remote		Remote	1520	69.2 µM
